Assay results as given in ChEMBL document CHEMBL3885881, “DrugMatrix”.
Several values for one entry are separate records, joined by “and”; a condition that tells them apart may be missing. Identical values can stand only once.

Species: Rattus norvegicus
Assay: DrugMatrix - Regimen: Daily Repeat
Format: toxicity, organism-based, Sprague-Dawley
Set-up: regimen Daily Repeat, gender Male, age 6-8 weeks
Conditions: in vivo, ip, route intraperitoneal, vehicle 100 % SALINE; for ABSOLUTE BASOPHIL / ABSOLUTE EOSINOPHIL / ABSOLUTE LYMPHOCYTE / ABSOLUTE MONOCYTE / BASOPHIL / EOSINOPHIL / ERYTHROCYTE COUNT / HEMATOCRIT / HEMOGLOBIN / LEUKOCYTE COUNT / LYMPHOCYTE / MEAN CORPUSCULAR HEMOGLOBIN / MEAN CORPUSCULAR HEMOGLOBIN CONCENTRATION / MEAN CORPUSCULAR VOLUME / MONOCYTE / NEUTROPHIL / PLATELET COUNT: tissue Blood
[1] = 0 mg/kg, […], tissue Plasma, dose level Control, time 28 day
[2] = 0.5 mg/kg, 120 h, dose level High, time 5 day
[3] = 0.5 mg/kg, 120 h, tissue Plasma, dose level High, time 5 day
[4] = 0.5 mg/kg, […], dose level High, time 14 day
[5] = 0.5 mg/kg, […], dose level High, time 28 day
[6] = 0.5 mg/kg, […], tissue Plasma, dose level High, time 14 day

CISPLATIN
CHOLESTEROL [1]: 44.9 mg/dL
CREATININE [1]: 0.6 mg/dL
GLUCOSE [1]: 147.2 mg/dL
LACTATE DEHYDROGENASE [1]: 123.1 u/L
LIPASE [1]: 9.6 u/L
PHOSPHORUS [1]: 10.01 mg/dL
POTASSIUM [1]: 6.57 MEQ/L
SODIUM [1]: 149.5 MEQ/L
TOTAL BILIRUBIN [1]: 0.21 mg/dL
URIC ACID [1]: 1.26 mg/dL
ABSOLUTE BASOPHIL [2]: 26 cells/µL
ABSOLUTE EOSINOPHIL [2]: 92 cells/µL
ABSOLUTE LYMPHOCYTE [2]: 5270 cells/µL
ABSOLUTE MONOCYTE [2]: 150 cells/µL
BASOPHIL [2]: 0.36% and 0.28%
EOSINOPHIL [2]: 1.46% and 0.85%
ERYTHROCYTE COUNT [2]: 7.52 x10E6/uL and 7.82 x10E6/uL
HEMATOCRIT [2]: 46.92% and 52.02%
HEMOGLOBIN [2]: 16.7 G/DL
LEUKOCYTE COUNT [2]: 6.24 x10E3/uL and 6.92 x10E3/uL
LYMPHOCYTE [2]: 84.62% and 88.4%
MEAN CORPUSCULAR HEMOGLOBIN [2]: 20.1 pg and 21.33 pg
MEAN CORPUSCULAR HEMOGLOBIN CONCENTRATION [2]: 32.2 G/DL and 32.05 G/DL
MEAN CORPUSCULAR VOLUME [2]: 66.5 fL
MONOCYTE [2]: 2.36% and 1.6%
NEUTROPHIL [2]: 10.88% and 7.72%
PLATELET COUNT [2]: 1593.2 x10E3/uL and 1552.25 x10E3/uL
ALANINE AMINOTRANSFERASE [3]: 25 u/L and 19.25 u/L
ALBUMIN [3]: 3.66 G/DL and 4.4 G/DL
ALKALINE PHOSPHATASE [3]: 215.2 u/L and 294.25 u/L
ASPARTATE AMINOTRANSFERASE [3]: 75.2 u/L and 87.5 u/L
BLOOD UREA NITROGEN [3]: 13.8 mg/dL and 15 mg/dL
CARBON DIOXIDE [3]: 25.25 mmol/L
CHLORIDE [3]: 106.6 MEQ/L and 107.25 MEQ/L
CHOLESTEROL [3]: 54.4 mg/dL and 68 mg/dL
CREATININE [3]: 0.54 mg/dL and 0.5 mg/dL
GLUCOSE [3]: 136.8 mg/dL and 138.75 mg/dL
LIPASE [3]: 26.8 u/L and 10 u/L
POTASSIUM [3]: 5.54 MEQ/L and 5.67 MEQ/L
SODIUM [3]: 146.2 MEQ/L and 152.25 MEQ/L
TOTAL BILIRUBIN [3]: 0.18 mg/dL and 0.43 mg/dL
URIC ACID [3]: 1.34 mg/dL and 2.38 mg/dL
ABSOLUTE BASOPHIL [4]: 36 cells/µL
ABSOLUTE EOSINOPHIL [4]: 56 cells/µL
ABSOLUTE LYMPHOCYTE [4]: 7470 cells/µL
ABSOLUTE MONOCYTE [4]: 180 cells/µL
MEAN CORPUSCULAR HEMOGLOBIN [4]: 19.97 pg
ABSOLUTE BASOPHIL [5]: 87.8 cells/µL
ABSOLUTE EOSINOPHIL [5]: 85.6 cells/µL
ABSOLUTE LYMPHOCYTE [5]: 8670 cells/µL
ABSOLUTE MONOCYTE [5]: 180 cells/µL
BASOPHIL [5]: 0.8%
EOSINOPHIL [5]: 0.83%
ERYTHROCYTE COUNT [5]: 9.05 x10E6/uL
HEMATOCRIT [5]: 52.96%
HEMOGLOBIN [5]: 17.03 G/DL
LEUKOCYTE COUNT [5]: 10.42 x10E3/uL
LYMPHOCYTE [5]: 83.03%
MEAN CORPUSCULAR HEMOGLOBIN [5]: 18.84 pg
MEAN CORPUSCULAR HEMOGLOBIN CONCENTRATION [5]: 32.23 G/DL
MEAN CORPUSCULAR VOLUME [5]: 58.53 fL
MONOCYTE [5]: 1.62%
NEUTROPHIL [5]: 13.3%
PLATELET COUNT [5]: 1272.33 x10E3/uL
ALBUMIN [6]: 3.38 G/DL
CARBON DIOXIDE [6]: 22.25 mmol/L
CHLORIDE [6]: 111.6 MEQ/L
ALANINE AMINOTRANSFERASE (0.5 mg/kg, […], tissue Plasma, dose level High, time 28 day): 30.78 u/L
